These results are taken from patent publication US20210198204A1, “PRODRUGS OF KALLIKREIN INHIBITORS” (BioCryst Pharmaceuticals, Inc., priority 2016, published 2021).

This data set in a line: Plasma pharmacokinetics of the parent compound after a single oral dose of prodrug. It counts as in vivo. The conditions noted are these: single oral dose 10 mg/kg, fasted male Sprague Dawley rats; plasma analyzed for the parent compound; study duration 8 h. Summed up: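 Three male Sprague Dawley rats, housed in metabolic cages and fasted about 15 hours, were weighed and received one oral gavage dose of 10 mg/kg as a solution in water or water/propylene glycol. Blood (approximately 500 μL) went into heparin tubes at set timepoints up to the study duration. Plasma was separated by centrifugation at 14,000 rpm for 3 min at 4° C, stored below −70° C, and assayed for the parent compound.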
On to `C=Cc1cc(C(=O)Nc2ccc(C(=N)NC(=O)OC[C@@H]3C[C@@H](O)CC(=O)O3)cc2)c(-c2ccc(C(=O)NCC3CC3)nc2C(=O)OC(C)OC(=O)C(C)C)cc1OC` (stereo partly drawn) [Compound 73d, 1-(isobutyryloxy)ethyl 6-((cyclopropylmethyl)carbamoyl)-3-(2-((4-(N-((((2S,4R)-4-hydroxy-6-oxotetrahydro-2H-pyran-2-yl)methoxy)carbonyl)carbamimidoyl)phenyl)carbamoyl)-5-methoxy-4-vinylphenyl)picolinate], for which the “AUC0-last hour (area under the curve)” value is reported as “A (A = 0-1,000 ng/mL)”.

Consider `C=Cc1cc(C(=O)Nc2ccc(C(=N)NC(=O)OCOC(=O)[C@@H](N)C(C)C)cc2)c(-c2ccc(C(=O)NCC3CC3)nc2C(=O)OCOC(=O)[C@@H](N)C(C)C)cc1OC` [Compound 74e, (((S)-2-amino-3-methylbutanoyl)oxy)methyl 3-(2-((4-(N—(((((S)-2-amino-3-methylbutanoyl)oxy)methoxy)carbonyl)carbamimidoyl)phenyl)carbamoyl)-5-methoxy-4-vinylphenyl)-6-((cyclopropylmethyl)carbamoyl)picolinate], for which the “AUC0-last hour (area under the curve)” value was “B (B = 1,001-10,000 ng/mL)”. For the molecule `C=Cc1cc(C(=O)Nc2ccc(C(=N)NC(=O)OCCN3CCOCC3)cc2)c(-c2ccc(C(=O)NCC3CC3)nc2C(=O)OC(C)OC(=O)C(C)C)cc1OC` (stereo not shown) [Compound 75c, 1-(isobutyryloxy)ethyl 6-((cyclopropylmethyl)carbamoyl)-3-(5-methoxy-2-((4-(N-((2-morpholinoethoxy)carbonyl)carbamimidoyl)phenyl)carbamoyl)-4-vinylphenyl)picolinate], the “AUC0-last hour (area under the curve)” value is listed as “B (B = 1,001-10,000 ng/mL)”.

Consider `C=Cc1cc(C(=O)Nc2ccc(C(=N)NC(=O)OCC3COC(C)(C)O3)cc2)c(-c2ccc(C(=O)NCC3CC3)nc2C(=O)OC(C)OC(=O)OC(C)C)cc1OC` (stereo not shown) [Compound 77c, 1-((isopropoxycarbonyl)oxy)ethyl 6-((cyclopropylmethyl)carbamoyl)-3-(2-((4-(N-(((2,2-dimethyl-1,3-dioxolan-4-yl)methoxy)carbonyl)carbamimidoyl)phenyl)carbamoyl)-5-methoxy-4-vinylphenyl)picolinate], for which the “AUC0-last hour (area under the curve)” value is listed as “B (B = 1,001-10,000 ng/mL)”. With `C=Cc1cc(C(=O)Nc2ccc(C(=N)NC(=O)OCCOCC)cc2)c(-c2ccc(C(=O)NCC3CC3)nc2C(=O)OC(C)OC(=O)C(C)C)cc1OC` (stereo not shown) [Compound 80c, 1-(isobutyryloxy)ethyl 6-((cyclopropylmethyl)carbamoyl)-3-(2-((4-(N-((2-ethoxyethoxy)carbonyl)carbamimidoyl)phenyl)carbamoyl)-5-methoxy-4-vinylphenyl)picolinate], the “AUC0-last hour (area under the curve)” value was “C (C >10,000 ng/mL)”. In the case of `C=Cc1cc(C(=O)Nc2ccc(C(=N)NC(=O)OCCCCCC)cc2)c(-c2ccc(C(=O)NCC3CC3)nc2C(=O)OC(C)OC(=O)NC(C)C)cc1OC` (stereo not shown) [Compound 81d, 1-((isopropylcarbamoyl)oxy)ethyl 6-((cyclopropylmethyl)carbamoyl)-3-(2-((4-(N-((hexyloxy)carbonyl)carbamimidoyl)phenyl)carbamoyl)-5-methoxy-4-vinylphenyl)picolinate] it was “A (A = 0-1,000 ng/mL)”; in that of `C=Cc1cc(C(=O)Nc2ccc(C(=N)NC(=O)OCCOCCC)cc2)c(-c2ccc(C(=O)NCC3CC3)nc2C(=O)OC(C)OC(=O)OC(C)C)cc1OC` (stereo not shown) [Compound 83c, 1-((isopropoxycarbonyl)oxy)ethyl 6-((cyclopropylmethyl)carbamoyl)-3-(5-methoxy-2-((4-(N-((2-propoxyethoxy)carbonyl)carbamimidoyl)phenyl)carbamoyl)-4-vinylphenyl)picolinate], “B (B = 1,001-10,000 ng/mL)”; in that of `C=Cc1cc(C(=O)Nc2ccc(C(=N)NC(=O)OCC(O)CO)cc2)c(-c2ccc(C(=O)NCC3CC3)nc2C(=O)OC(C)OC(=O)OC(C)C)cc1OC` (stereo not shown) [Compound 84a, 1-((isopropoxycarbonyl)oxy)ethyl 6-((cyclopropylmethyl)carbamoyl)-3-(2-((4-(N-((2,3-dihydroxypropoxy)carbonyl)carbamimidoyl)phenyl)carbamoyl)-5-methoxy-4-vinylphenyl)picolinate], “A (A = 0-1,000 ng/mL)”.

In the case of `C=Cc1cc(C(=O)Nc2ccc(C(=N)NC(=O)OCCO)cc2)c(-c2ccc(C(=O)NCC3CC3)nc2C(=O)OC(C)OC(=O)C(C)C)cc1OC` (stereo not shown) [Compound 85d, 1-(isobutyryloxy)ethyl 6-((cyclopropylmethyl)carbamoyl)-3-(2-((4-(N-((2-hydroxyethoxy)carbonyl)carbamimidoyl)phenyl)carbamoyl)-5-methoxy-4-vinylphenyl)picolinate], the “AUC0-last hour (area under the curve)” value is given as “A (A = 0-1,000 ng/mL)”.

As for `C=Cc1cc(C(=O)Nc2ccc(C(=N)NC(=O)OCCCCCC)cc2)c(-c2ccc(C(=O)NCC3CC3)nc2C(=O)OC(C)OC(=O)OCC2COC(C)(C)O2)cc1OC` (stereo not shown) [Compound 87a, 1-((((2,2-dimethyl-1,3-dioxolan-4-yl)methoxy)carbonyl)oxy)ethyl 6-((cyclopropylmethyl)carbamoyl)-3-(2-((4-(N-((hexyloxy)carbonyl)carbamimidoyl)phenyl)carbamoyl)-5-methoxy-4-vinylphenyl)picolinate], the “AUC0-last hour (area under the curve)” value was “B (B = 1,001-10,000 ng/mL)”. On to `C=Cc1cc(C(=O)Nc2ccc(C(=N)NC(=O)OCCCCCC)cc2)c(-c2ccc(C(=O)NCC3CC3)nc2C(=O)OC(C)OC(=O)N(C)C)cc1OC` (stereo not shown) [Compound 90d, 1-((dimethylcarbamoyl)oxy)ethyl 6-((cyclopropylmethyl)carbamoyl)-3-(2-((4-(N-((hexyloxy)carbonyl)carbamimidoyl)phenyl)carbamoyl)-5-methoxy-4-vinylphenyl)picolinate], for which the “AUC0-last hour (area under the curve)” value is “A (A = 0-1,000 ng/mL)”. In the case of `C=Cc1cc(C(=O)Nc2ccc(C(=N)NC(=O)OCCCCCC)cc2)c(-c2ccc(C(=O)NCC3CC3)nc2C(=O)OC(C)OC(=O)N[C@H](C(=O)OCC)[C@@H](C)CC)cc1OC` (stereo partly drawn) [Compound 91d, 1-((((2S,3S)-1-ethoxy-3-methyl-1-oxopentan-2-yl)carbamoyl)oxy)ethyl 6-((cyclopropylmethyl)carbamoyl)-3-(2-((4-(N-((hexyloxy)carbonyl)carbamimidoyl)phenyl)carbamoyl)-5-methoxy-4-vinylphenyl)picolinate] it was “A (A = 0-1,000 ng/mL)”; in that of `C=Cc1cc(C(=O)Nc2ccc(C(=N)NC(=O)OCCC[C@H](O)C(=O)O)cc2)c(-c2ccc(C(=O)NCC3CC3)nc2C(=O)OC(C)OC(=O)C(C)C)cc1OC` (stereo partly drawn) [Compound 92a, (2S)-5-((((4-(2-(6-((cyclopropylmethyl)carbamoyl)-2-((1-(isobutyryloxy)ethoxy)carbonyl)pyridin-3-yl)-4-methoxy-5-vinylbenzamido)phenyl)(imino)methyl)carbamoyl)oxy)-2-hydroxypentanoic acid], “A (A = 0-1,000 ng/mL)”. To `C=Cc1cc(C(=O)Nc2ccc(C(=N)NC(=O)OCCCCCO)cc2)c(-c2ccc(C(=O)NCC3CC3)nc2C(=O)OC(C)OC(=O)C(C)C)cc1OC` (stereo not shown) [Compound 94e, 1-(isobutyryloxy)ethyl 6-((cyclopropylmethyl)carbamoyl)-3-(2-((4-(N-(((5-hydroxypentyl)oxy)carbonyl)carbamimidoyl)phenyl)carbamoyl)-5-methoxy-4-vinylphenyl)picolinate] belongs “B (B = 1,001-10,000 ng/mL)”; to `C=Cc1cc(C(=O)Nc2ccc(C(=N)NC(=O)OC(C)CO)cc2)c(-c2ccc(C(=O)NCC3CC3)nc2C(=O)OC(C)OC(=O)OC(C)C)cc1OC` (stereo not shown) [Compound 95e, 1-((isopropoxycarbonyl)oxy)ethyl 6-((cyclopropylmethyl)carbamoyl)-3-(2-((4-(N-(((1-hydroxypropan-2-yl)oxy)carbonyl)carbamimidoyl)phenyl)carbamoyl)-5-methoxy-4-vinylphenyl)picolinate], “B (B = 1,001-10,000 ng/mL)”; to `C=Cc1cc(C(=O)Nc2ccc(C(=N)NC(=O)OCCN3CCOCC3)cc2)c(-c2ccc(C(=O)NCC3CC3)nc2C(=O)OC(C)OC(=O)[C@@H](N)C(C)C)cc1OC` (stereo partly drawn) [Compound 96d, 1-(((S)-2-amino-3-methylbutanoyl)oxy)ethyl 6-((cyclopropylmethyl)carbamoyl)-3-(5-methoxy-2-((4-(N-((2-morpholinoethoxy)carbonyl)carbamimidoyl)phenyl)carbamoyl)-4-vinylphenyl)picolinate], “A (A = 0-1,000 ng/mL)”.

As to `C=Cc1cc(C(=O)Nc2ccc(C(=N)NC(=O)OC(C)CN)cc2)c(-c2ccc(C(=O)NCC3CC3)nc2C(=O)OC(C)OC(=O)OC(C)C)cc1OC` (stereo not shown) [Compound 97e, 1-((isopropoxycarbonyl)oxy)ethyl 3-(2-((4-(N-(((1-aminopropan-2-yl)oxy)carbonyl)carbamimidoyl)phenyl)carbamoyl)-5-methoxy-4-vinylphenyl)-6-((cyclopropylmethyl)carbamoyl)picolinate], the “AUC0-last hour (area under the curve)” value is given as “A (A = 0-1,000 ng/mL)”. To `C=Cc1cc(C(=O)Nc2ccc(C(=N)NC(=O)OC[C@H]3OC[C@H](O)[C@@H]3O)cc2)c(-c2ccc(C(=O)NCC3CC3)nc2C(=O)OC(C)OC(=O)C(C)C)cc1OC` (stereo partly drawn) [Compound 98e, 1-(isobutyryloxy)ethyl 6-((cyclopropylmethyl)carbamoyl)-3-(2-((4-(N-((((2R,3S,4S)-3,4-dihydroxytetrahydrofuran-2-yl)methoxy)carbonyl)carbamimidoyl)phenyl)carbamoyl)-5-methoxy-4-vinylphenyl)picolinate] belongs “A (A = 0-1,000 ng/mL)”. With `C=Cc1cc(C(=O)Nc2ccc(C(=N)NC(=O)OC[C@H]3NC[C@H](O)[C@@H]3O)cc2)c(-c2ccc(C(=O)NCC3CC3)nc2C(=O)OC(C)OC(=O)OC(C)C)cc1OC` (stereo partly drawn) [Compound 99e, 1-((isopropoxycarbonyl)oxy)ethyl 6-((cyclopropylmethyl)carbamoyl)-3-(2-((4-(N-((((2R,3R,4S)-3,4-dihydroxypyrrolidin-2-yl)methoxy)carbonyl)carbamimidoyl)phenyl)carbamoyl)-5-methoxy-4-vinylphenyl)picolinate], the “AUC0-last hour (area under the curve)” value is given as “A (A = 0-1,000 ng/mL)”.
